From ChEMBL document CHEMBL3745712, “Identification of N-(4-((1R,3S,5S)-3-Amino-5-methylcyclohexyl)pyridin-3-yl)-6-(2,6-difluorophenyl)-5-fluoropicolinamide (PIM447), a Potent and Selective Proviral Insertion Site of Moloney Murine Leukemia (PIM) 1, 2, and 3 Kinase Inhibitor in Clinical Trials for Hematological Malignancies” (J Med Chem, 2015)

Legend:
cells [1] = assay type: functional, cell-based; conditions: Homo sapiens, KMS-11, 72 h
Description: Antiproliferative activity against luciferase expressing human KMS11 cells after 72 hrs by Cell-TiterGlo assay

in vitro [2] = conditions: rat, microsomes
in vitro [3] = conditions: human, microsomes
in vitro [4] = conditions: rat, microsomes; remark: listed apart in the source
in vitro [5] = conditions: human, microsomes; remark: listed apart in the source
[6] = biological target: Serine/threonine-protein kinase pim-1 (Homo sapiens, UniProt P11309)
Serine/threonine-protein kinase pim-1, sequence (P11309 whole entry): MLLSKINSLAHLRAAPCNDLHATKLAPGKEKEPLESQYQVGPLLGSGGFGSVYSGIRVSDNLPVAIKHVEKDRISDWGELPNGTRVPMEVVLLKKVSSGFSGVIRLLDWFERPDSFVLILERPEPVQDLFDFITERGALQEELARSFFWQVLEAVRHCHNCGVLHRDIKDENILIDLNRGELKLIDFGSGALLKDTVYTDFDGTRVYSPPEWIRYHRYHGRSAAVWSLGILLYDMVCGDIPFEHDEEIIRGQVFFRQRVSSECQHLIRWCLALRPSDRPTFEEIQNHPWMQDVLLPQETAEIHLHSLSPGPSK

[7] = biological target: Serine/threonine-protein kinase pim-3 (Homo sapiens, UniProt Q86V86)
cells [8] = assay type: cell-based, KMS11; conditions: Homo sapiens, KMS-11, 1 h

SMILES | EC50 (cells [1]) | half-life at 0.5 h, 1 µM (in vitro [2]) | half-life at 0.5 h, 1 µM (in vitro [3]) | CLhep predicted at 0.5 h, 1 µM (in vitro [4]) | CLhep predicted at 0.5 h, 1 µM (in vitro [5]) | Ki [6] | Ki [7] | EC50 (cells [8])
N[C@@H]1CCCN(c2c(/C=C3\SC(=O)NC3=O)cccc2-c2ccccc2)C1 | 0.67 µM |  |  |  |  |  |  | 
CN1CCC(CNc2ccc3ncc(-c4cccc(OC(F)(F)F)c4)n3n2)CC1 [SGI-1776] | 5 µM |  |  |  |  |  |  | 
Nc1ccc(C2CCCCC2)nc1C(=O)Nc1cnccc1[C@@H]1CCC[C@H](N)C1 |  | 8 min | 85 min |  | 10 mL/min/kg |  |  | 
Nc1ccc(C2CCCCC2)nc1C(=O)Nc1cnccc1N1CCC[C@H](N)C1 |  | 3 min | 14 min | 52 mL/min/kg | 18 mL/min/kg | < 0.001 µM | 0.003 µM | 
C[C@@H]1C[C@H](N)CN(c2ccncc2NC(=O)c2ccc(F)c(-c3ccccc3F)n2)C1 |  | 11 min | 13 min | 45 mL/min/kg | 18 mL/min/kg |  | < 0.003 µM | 

More lines, now with the values ahead:

EC50 (cells [1]) | half-life at 0.5 h, 1 µM (in vitro [2]) | half-life at 0.5 h, 1 µM (in vitro [3]) | CLhep predicted at 0.5 h, 1 µM (in vitro [4]) | CLhep predicted at 0.5 h, 1 µM (in vitro [5]) | Ki [6] | Ki [7] | EC50 (cells [8]) | SMILES
1.2 µM | 6 min | 70 min | 49 mL/min/kg | 11 mL/min/kg |  |  |  | N[C@H]1CCCN(c2ccncc2NC(=O)c2csc(-c3c(F)cccc3F)n2)C1
 | 20 min | 40 min | 40 mL/min/kg | 14 mL/min/kg |  |  |  | C[C@@H]1C[C@H](N)CN(c2ccncc2NC(=O)c2ccc(F)c(-c3c(F)cccc3F)n2)C1
 | 92 min | > 180 min |  | < 6 mL/min/kg |  |  |  | C[C@@H]1C[C@H](N)C[C@H](c2ccncc2NC(=O)c2ccc(F)c(-c3ccccc3F)n2)C1
1.4 µM | 13 min | 25 min | 44 mL/min/kg | 16 mL/min/kg | < 0.001 µM | < 0.003 µM |  | N[C@H]1CCCN(c2ccncc2NC(=O)c2ccc(F)c(-c3c(F)cccc3F)n2)C1
5 µM | 85 min | 121 min | 21 mL/min/kg | 8 mL/min/kg |  |  |  | N[C@H]1CCC[C@@H](c2ccncc2NC(=O)c2csc(-c3c(F)cccc3F)n2)C1
0.91 µM | 65 min | > 180 min | 24 mL/min/kg | < 6 mL/min/kg | < 0.001 µM | 0.004 µM | 0.32 µM | C[C@@H]1C[C@H](N)C[C@H](c2ccncc2NC(=O)c2csc(-c3c(F)cccc3F)n2)C1
0.39 µM | 9 min | 49 min | 47 mL/min/kg | 13 mL/min/kg |  |  |  | C[C@@H]1C[C@H](N)CN(c2ccncc2NC(=O)c2csc(-c3c(F)cccc3F)n2)C1
